Experimental data taken from PubChem BioAssay AID248 (DTP/NCI, 2004).
Values joined by “and” are separate entries in the source; they are usually repeats but may differ in a detail not shown here. Equal entries are not always repeated. Toxic doses and inconclusive results are not listed. Cut-off read from the data, not from the text of the source: active = T/C of 150% or more; inactive = T/C below 125%.

System: L1210 leukemia ip in BDF1 mice, survival T/C
Experiment: NCI In Vivo Anticancer Drug Screen. Data for tumor model L1210 Leukemia (intraperitoneal) in B6D2F1 (BDF1) mice
Conditions: endpoint: mean survival time, higher = longer survival
Procedure, shortened: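 Value reflects the ratio of survival in compound-treated mice to survival in vehicle-treated controls, with both groups carrying the same transplanted tumor.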

[1] = dose: 400.0 mg/kg/injection, schedule: Q01DX001 (ip), vehicle: carboxymethylcellulose (CMC)
[2] = dose: 400.0 mg/kg/injection, schedule: Q01DX009 (ip), vehicle: carboxymethylcellulose (CMC)
[3] = dose: 100.0 mg/kg/injection, schedule: Q01DX009 (ip), vehicle: Klucel (hydroxypropylcellulose) (HPC)
[4] = dose: 100.0 mg/kg/injection, schedule: Q04DX003 (ip), vehicle: Klucel (hydroxypropylcellulose) (HPC)
[5] = dose: 200.0 mg/kg/injection, schedule: Q01DX009 (ip), vehicle: Klucel (hydroxypropylcellulose) (HPC)
[6] = dose: 200.0 mg/kg/injection, schedule: Q04DX003 (ip), vehicle: Klucel (hydroxypropylcellulose) (HPC)
[7] = dose: 400.0 mg/kg/injection, schedule: Q01DX009 (ip), vehicle: Klucel (hydroxypropylcellulose) (HPC)
[8] = dose: 400.0 mg/kg/injection, schedule: Q04DX003 (ip), vehicle: Klucel (hydroxypropylcellulose) (HPC)
[9] = dose: 100.0 mg/kg/injection, schedule: Q01DX001 (ip), vehicle: saline
[10] = dose: 200.0 mg/kg/injection, schedule: Q01DX001 (ip), vehicle: saline
[11] = dose: 400.0 mg/kg/injection, schedule: Q01DX001 (ip), vehicle: saline
[12] = dose: 200.0 mg/kg/injection, schedule: Q01DX009 (ip), vehicle: saline with Tween-80

Measured: T/C

Cc1ccc(NC(=O)N(CCCl)N=O)cc1NC(=O)N(CCCl)N=O
active: dose: 177.0 mg/kg/injection, schedule: Q01DX001 (ip), vehicle: carboxymethylcellulose (CMC) 154 % of control | dose: 266.0 mg/kg/injection, schedule: Q01DX001 (ip), vehicle: carboxymethylcellulose (CMC) 152 % of control | dose: 266.0 mg/kg/injection, schedule: Q01DX009 (ip), vehicle: carboxymethylcellulose (CMC) 152 % of control | [1] 157 % of control | [2] 195 % of control | dose: 600.0 mg/kg/injection, schedule: Q01DX001 (ip), vehicle: carboxymethylcellulose (CMC) 158 % of control | dose: 600.0 mg/kg/injection, schedule: Q01DX009 (ip), vehicle: carboxymethylcellulose (CMC) 202 % of control

CCCCNC(=O)Nc1ccccc1OCC
inactive: [3] 93 % of control | [4] 94 % of control | [5] 92 % of control | [6] 104 % of control | [7] 97 % of control | [8] 94 % of control

CCCN1C(=O)CC(=O)NC1=O
inactive: [9] 102 % of control | [10] 100 % of control | [11] 100 % of control

CCn1ccc(=O)c2cc([N+](=O)[O-])ccc21
inactive: [3] 95 % of control | [4] 92 % of control | [5] 103 % of control | [6] 92 % of control | [7] 92 % of control | [8] 91 % of control

C=C1C2CCC(C2)C1(C)CC/C=C(/C)CO (stereo not given) (tested in a mixture with another compound)
inactive: [4] 96 % of control | [6] 96 % of control | [8] 93 % of control

O=C1OC(=O)c2cccc3cccc1c23
inactive: dose: 50.0 mg/kg/injection, schedule: Q01DX001 (ip), vehicle: Klucel (hydroxypropylcellulose) (HPC) 98 % of control | dose: 100.0 mg/kg/injection, schedule: Q01DX001 (ip), vehicle: Klucel (hydroxypropylcellulose) (HPC) 97 % of control | dose: 200.0 mg/kg/injection, schedule: Q01DX001 (ip), vehicle: Klucel (hydroxypropylcellulose) (HPC) 94 % of control | dose: 400.0 mg/kg/injection, schedule: Q01DX001 (ip), vehicle: Klucel (hydroxypropylcellulose) (HPC) 111 % of control

NC(=O)N/N=C/C(c1ccccc1)c1ccccc1
inactive: dose: 100.0 mg/kg/injection, schedule: Q04DX003 (ip), vehicle: saline with Tween-80 96 % of control | dose: 200.0 mg/kg/injection, schedule: Q04DX003 (ip), vehicle: saline with Tween-80 94 % of control | dose: 400.0 mg/kg/injection, schedule: Q04DX003 (ip), vehicle: saline with Tween-80 103 % of control

O=P(CCC(F)(F)C(F)(F)C(F)(F)C(F)(F)C(F)(F)C(F)(F)C(F)(F)F)(N1CC1)N1CC1
inactive: dose: 75.0 mg/kg/injection, schedule: Q01DX001 (ip), vehicle: carboxymethylcellulose (CMC) 108 % of control

CN1CCN(c2nn3nnnc3c3ccccc23)CC1
inactive: dose: 20.0 mg/kg/injection, schedule: Q04DX003 (ip), vehicle: saline 98 % of control | dose: 40.0 mg/kg/injection, schedule: Q04DX003 (ip), vehicle: saline 104 % of control | dose: 80.0 mg/kg/injection, schedule: Q04DX003 (ip), vehicle: saline 95 % of control

Cc1ccc(CS(=O)C(Cl)(Cl)c2ccc(C)cc2)cc1 (stereo not given)
inactive: dose: 100.0 mg/kg/injection, schedule: Q04DX002 (ip), vehicle: Klucel (hydroxypropylcellulose) (HPC) 97 % of control | dose: 200.0 mg/kg/injection, schedule: Q04DX002 (ip), vehicle: Klucel (hydroxypropylcellulose) (HPC) 94 % of control | dose: 400.0 mg/kg/injection, schedule: Q04DX002 (ip), vehicle: Klucel (hydroxypropylcellulose) (HPC) 97 % of control

CCCCCCCCCCCCCCCC(=O)Nc1cccc2cnccc12
inactive: [4] 100 % of control | [6] 97 % of control | [8] 105 % of control

N=Nc1ccc2c(O)c3ccccc3c(O)c2c1
inactive: dose: 100.0 mg/kg/injection, schedule: Q01DX001 (ip), vehicle: carboxymethylcellulose (CMC) 107 % of control | dose: 100.0 mg/kg/injection, schedule: Q01DX009 (ip), vehicle: carboxymethylcellulose (CMC) 100 % of control and 103 % of control | dose: 100.0 mg/kg/injection, schedule: Q04DX002 (ip), vehicle: saline 103 % of control | dose: 100.0 mg/kg/injection, schedule: Q04DX003 (ip), vehicle: carboxymethylcellulose (CMC) 101 % of control | dose: 200.0 mg/kg/injection, schedule: Q01DX001 (ip), vehicle: carboxymethylcellulose (CMC) 104 % of control | dose: 200.0 mg/kg/injection, schedule: Q01DX009 (ip), vehicle: carboxymethylcellulose (CMC) 98 % of control and 100 % of control | dose: 200.0 mg/kg/injection, schedule: Q04DX002 (ip), vehicle: saline 105 % of control and 106 % of control | dose: 200.0 mg/kg/injection, schedule: Q04DX003 (ip), vehicle: carboxymethylcellulose (CMC) 98 % of control | [1] 105 % of control | [2] 94 % of control and 96 % of control | dose: 400.0 mg/kg/injection, schedule: Q04DX002 (ip), vehicle: saline 97 % of control and 105 % of control | dose: 400.0 mg/kg/injection, schedule: Q04DX003 (ip), vehicle: carboxymethylcellulose (CMC) 101 % of control

Cc1cc(-c2ccccc2)c2ccccc2c1N(CC(=O)O)S(=O)(=O)c1ccccc1
inactive: dose: 100.0 mg/kg/injection, schedule: Q01DX009 (ip), vehicle: saline with Tween-80 105 % of control | dose: 100.0 mg/kg/injection, schedule: Q04DX003 (ip), vehicle: saline 98 % of control | [12] 93 % of control | dose: 200.0 mg/kg/injection, schedule: Q04DX003 (ip), vehicle: saline 104 % of control | dose: 400.0 mg/kg/injection, schedule: Q04DX003 (ip), vehicle: saline 102 % of control

Cc1ccc(C)c(NC(=O)N(Cc2ccccc2)Cc2ccccc2)c1
inactive: [3] 94 % of control | [5] 91 % of control | [7] 96 % of control

Cc1cc(Cl)c(OC(=O)Nc2ccccc2C(F)(F)F)cc1C
inactive: [3] 107 % of control | [5] 107 % of control | [7] 98 % of control

Nc1nc(SCC(=O)c2ccccc2)c2[nH]cnc2n1
active: dose: 117.0 mg/kg/injection, schedule: Q01DX009 (ip), vehicle: saline with Tween-80 153 % of control | dose: 176.0 mg/kg/injection, schedule: Q01DX009 (ip), vehicle: saline with Tween-80 151 % of control | dose: 264.0 mg/kg/injection, schedule: Q01DX009 (ip), vehicle: saline with Tween-80 156 % of control | dose: 400.0 mg/kg/injection, schedule: Q01DX009 (ip), vehicle: saline with Tween-80 152 % of control
inactive: [12] 104 % of control

COc1cc(C(=O)CCC(=O)O)cc(OC)c1OC
inactive: [3] 96 % of control | [4] 96 % of control | [5] 104 % of control | [6] 102 % of control | [7] 102 % of control | [8] 93 % of control

CSc1c(C(N)=O)c2c(N)ncnc2n1C1OC(CO)C(O)C1O (stereo not given)
inactive: [9] 114 % of control | [10] 121 % of control | [11] 121 % of control

CCN(CC)CCCC(Nc1c2ccc(Cl)cc2nc2ccc(OC)cc12)c1ccc(F)cc1 (stereo not given)
inactive: dose: 9.0 mg/kg/injection, schedule: Q01DX Z (ip), vehicle: methylcellulose (MC) 86 % of control | dose: 15.0 mg/kg/injection, schedule: Q01DX Z (ip), vehicle: methylcellulose (MC) 95 % of control | dose: 20.0 mg/kg/injection, schedule: Q01DX Z (ip), vehicle: methylcellulose (MC) 86 % of control | dose: 30.0 mg/kg/injection, schedule: Q01DX Z (ip), vehicle: methylcellulose (MC) 89 % of control

Cc1ccc(CNC(=O)Cc2ccccc2)cc1C
inactive: dose: 100.0 mg/kg/injection, schedule: Q04DX002 (ip), vehicle: saline with Tween-80 100 % of control | dose: 200.0 mg/kg/injection, schedule: Q04DX002 (ip), vehicle: saline with Tween-80 100 % of control | dose: 400.0 mg/kg/injection, schedule: Q04DX002 (ip), vehicle: saline with Tween-80 110 % of control

Cc1cc(N(CCOS(C)(=O)=O)CCOS(C)(=O)=O)ccc1C=Nc1cccc(Cl)c1
inactive: dose: 20.0 mg/kg/injection, schedule: Q04DX003 (ip), vehicle: Klucel (hydroxypropylcellulose) (HPC) 107 % of control | dose: 40.0 mg/kg/injection, schedule: Q04DX003 (ip), vehicle: Klucel (hydroxypropylcellulose) (HPC) 115 % of control | dose: 80.0 mg/kg/injection, schedule: Q04DX003 (ip), vehicle: Klucel (hydroxypropylcellulose) (HPC) 107 % of control | [4] 120 % of control
